Assay results reported in patent US9873889B2, “Increasing leaf longevity and disease resistance by altering salicylic acid catabolism” (priority 2013, dated 2018).

Columns and labels:
recombinant S3H = target: T1, recombinant S3H (Arabidopsis thaliana, UniProt Q9ZSA8); test: Enzyme assay of recombinant S3H (substrate specificity and kinetics); assay type: biochemical; settings: for S3H enzyme activity on substrate (in words): 30-min reaction under the same conditions as those for SA
T1 construct: His (N); made in house; host or cells: E. coli BL21 (DE3, pLys3)
T1 sequence (Q9ZSA8 1-349): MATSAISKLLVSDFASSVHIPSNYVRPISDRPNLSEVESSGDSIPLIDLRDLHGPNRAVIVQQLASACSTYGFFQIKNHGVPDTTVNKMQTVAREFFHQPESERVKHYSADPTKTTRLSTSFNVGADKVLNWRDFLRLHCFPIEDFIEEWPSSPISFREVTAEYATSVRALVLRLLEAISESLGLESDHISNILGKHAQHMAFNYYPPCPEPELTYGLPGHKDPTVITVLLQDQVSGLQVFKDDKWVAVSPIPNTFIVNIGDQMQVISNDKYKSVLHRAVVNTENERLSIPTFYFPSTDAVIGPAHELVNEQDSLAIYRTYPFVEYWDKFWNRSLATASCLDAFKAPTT
Description: (§1) The construct pET28a-S3H was introduced into E. coli BL21 (DE3, pLys3, Invitrogen, Carlsbad, Calif.). The bacterial cells containing pET28a-S3H were induced with 0.5 mM isopropyl β-D-1-thiogalactoside (IPTG) for 24 hr at 18° C., and were collected and disrupted by sonication in lysis buffer (20 mM Tris-Cl, pH7.5, 2 mM EDTA, 2 mM β-mercaptoethanol, 1 mM PMSF, 10 mM Imidazole, 0.1% Triton X-100, 20 mM sodium ascorbate). All subsequent purification procedures involving His-Bind® resin were performed at 4° C. according to the manufacturer (Novagen, Madison, Wis.). The recombinant protein concentration was quantified using Quick Start Bradford Dye Reagent (Biorad, Hercules, Calif.). 2 mM DTT was added to the enzyme solution and the protein was immediately kept in a −80° C. refrigerator.
(§2) The enzyme assay was performed using a method modified from Satio et al. (Saito et al., “Direct Evidence for Anthocyanidin Synthase as a 2-Oxoglutarate-Dependent Oxygenase: Molecular Cloning and Functional Expression of cDNA From a Red Forma of Perilla frutescens,” Plant J. 17(2):181-189 (1999), which is hereby incorporated by reference in its entirety). The reaction mixture (100 μl) contained 5 mM DTT, 4 mM sodium ascorbate, 1 mM 2-oxoglutaric acid, 0.4 mM FeSO4, 0.1 mg/ml catalase, 50 mM Tris-Cl pH8.0 or other buffer, 8-15 μg recombinant protein, various concentrations of SA. To determine the optimal temperature and pH for enzyme activity of S3H, the protein was incubated with 200 μM SA substrate in Tris-Cl buffer (pH8.0) at different temperatures for 15 min; or 500 μM SA substrate, in 50 mM Sodium citrate, Tris-Cl and Glycine buffers with different pH at 40° C. for 15 min. For enzyme kinetics analysis, various substrate SA concentrations ranging from 10 to 500 μM were used and the incubation proceeded for 6 min with pH 6.0. […] Mass spectra were recorded over 15 to 800 m/z in the negative mode. Km and Vmax were determined by Graphpad Prism 5 software using non-linear regression for Michaelis-Menten equation.

S3H [1] = settings: 10 μM, Col-0 (Seedling), 3 hrs; cited from earlier work
S3H [2] = test: SA treatment of plants, RNA gel blot analysis of S3H expression; assay type: in vivo, Arabidopsis thaliana; settings: 5 mM SA spray, Col-0 plants 25 DAG, 6 hours
Description: All chemicals used in this research were purchased from Sigma-Aldrich (St. Louis, Mo.), unless otherwise stated. Col-0 plants (25 DAG) were sprayed with 5 mM SA in 0.005% Silwet L-77 (Lehele Seeds, Tex.) or only 0.005% Silwet L-77 (mock). All rosette leaves of individual plants for RNA extraction were collected at different time points after the spray.
Total RNA extraction and RNA blot analysis were performed as described previously (He & Gan, “A Gene Encoding an Acyl Hydrolase Is Involved in Leaf Senescence in Arabidopsis,” Plant Cell 14(4):805-815 (2002), which is hereby incorporated by reference in its entirety). The DNA templates for probe labeling were amplified by the following different pairs of primers: S3H, G2956 and G2957; AtNAP, G3149 and G3150; SAG12, G10 and G246; SAG13, G9 and G16; EDS1, EDS1F and EDS1R; PAD4, PAD4F and PAD4R; PR1, PR1F and PR1R (FIG. 1E). The ethidium bromide staining of the RNA gels was used to show approximate amount of total RNA loading on each lane.

[3] = substrate: O=C(O)c1ccccc1O; test: Enzyme assay of recombinant S3H (substrate specificity and kinetics); assay type: biochemical, Arabidopsis thaliana; settings: other: pH 6.0 and 40° C. for 6 min, mean ± SE of four replicates
Description: as §1, §2

For `Nc1ccccc1C(=O)O` [Anthranilic acid], the “S3H enzyme activity on substrate (in words)” value (recombinant S3H) was “did not have detectable activity”.

For `O=C(O)c1ccccc1` [Benzoic acid], the “S3H enzyme activity on substrate (in words)” value (recombinant S3H) was “did not have detectable activity”.

For `O=C(O)c1ccccc1O` [Salicylic acid], the Specific activity (recombinant S3H; pH 6.0 and 40° C. for 30 min, mean ± SE of three replicates, n.d. = not detectable) is listed as 78.06 ± 9.75 nmol/mg/min, the “Induction folds of S3H” value (S3H [1]) is listed as 36.72 and the “S3H expression after SA treatment (RNA gel blot)” value (S3H [2]) is listed as “readily inducible”.

B1: recombinant S3H (Arabidopsis thaliana) (protein)
chain: T1 sequence (Q9ZSA8 1-349)
notes: His (N); made in house; host or cells: E. coli BL21 (DE3, pLys3)
B1 gave a Km [3] of 58.29 µM, a Vmax [3] of 0.498 µmol/min/mg and a kcat/Km [3] of 6090 M⁻¹ s⁻¹.
